Data published in ChEMBL document CHEMBL5550173, “Design, synthesis and biological evaluation of indoline-maleimide conjugates as potential antitumor agents for the treatment of colorectal cancer” (Bioorg Med Chem, 2024).

Key:
RKO [1] = experiment: Cytotoxicity against human RKO cells at 5 uM incubated for 72 hrs by MTS assay; type: functional
HT-29 [2] = experiment: Cytotoxicity against human HT-29 cells at 5 uM incubated for 72 hrs by MTS assay; type: functional
HCT-116 [3] = experiment: Cytotoxicity against human HCT-116 cells at 5 uM incubated for 72 hrs by MTS assay; type: functional
HCT-116 [4] = experiment: Cytotoxicity against human HCT-116 cells incubated for 72 hrs by MTS assay; type: functional, cell-based; conditions: HCT-116, 72 h
RKO [5] = experiment: Cytotoxicity against human RKO cells incubated for 72 hrs by MTS assay; type: functional, cell-based
HT-29 [6] = experiment: Cytotoxicity against human HT-29 cells incubated for 72 hrs by MTS assay; type: functional, cell-based; conditions: HT-29, 72 h
[7] = Cytotoxicity against human NCM460 cells incubated for 72 hrs by MTS assay; type: toxicity, cell-based

CN(C)C(=O)N1CCc2cccc(C3=CC(=O)N(C)C3=O)c21
Activity (RKO [1]): 4.75%
Activity (HT-29 [2]): 5.08%

CN1C(=O)C=C(c2cc(F)cc3c2N(C(=O)C(C)(C)C)CC3)C1=O
Activity (HCT-116 [3]): 6.51%
Activity (RKO [1]): 78.58%
Activity (HT-29 [2]): 18.8%

CN1C(=O)C=C(c2cccc3c2N(C(=O)N2CCCCC2)CC3)C1=O
Activity (RKO [1]): 17.85%

CN1C(=O)C=CC1=O
Activity (HCT-116 [3]): 51.17%
Activity (RKO [1]): 33.16%
Activity (HT-29 [2]): 7.09%

CC(=O)N1CCc2cccc(C3=CC(=O)N(C)C3=O)c21
Activity (RKO [1]): 48.13%
Activity (HT-29 [2]): 6.8%

CCN1C(=O)C=C(c2cccc3c2N(C(=O)C(C)(C)C)CC3)C1=O
Activity (HCT-116 [3]): 59.58%
Activity (RKO [1]): 80.91%
Activity (HT-29 [2]): 16.99%

COc1ccc(C2=CC(=O)N(C)C2=O)c2c1CCN2C(=O)C(C)(C)C
Activity (RKO [1]): 16.41%
Activity (HT-29 [2]): 4.04%

C=C(C)C(=O)N1CCc2ccccc21
Activity (HT-29 [2]): 4.7%

CC(C)(C)C(=O)N1CCc2cccc(C3=CC(=O)N(c4ccccc4)C3=O)c21
Activity (RKO [1]): 10.63%

CC(C)N1C(=O)C=C(c2cccc3c2N(C(=O)C(C)(C)C)CC3)C1=O
Activity (RKO [1]): 19.15%

CCC(=O)N1CCc2cccc(C3=CC(=O)N(C)C3=O)c21
Activity (HCT-116 [3]): 4.19%
Activity (RKO [1]): 80.31%

CN1C(=O)C=C(c2cccc3c2N(C(=O)C(C)(C)C)CC3)C1=O
Activity (HCT-116 [3]): 76.85%
Activity (RKO [1]): 79.24%
Activity (HT-29 [2]): 49.95%
IC50 (HCT-116 [4]): 3.96 µM
IC50 (RKO [5]): 2310 nM
IC50 (HT-29 [6]): 5.52 µM

COc1ccc2c(c1C1=CC(=O)N(C)C1=O)N(C(=O)C(C)(C)C)CC2
Activity (RKO [1]): 21.09%

CC(C)(C)C(=O)N1CCc2cccc(C3=CC(=O)N(Cc4ccccc4)C3=O)c21
Activity (RKO [1]): 39.93%

CC(=O)c1ccc(N2C(=O)C=C(c3cccc4c3N(C(=O)C(C)(C)C)CC4)C2=O)cc1
Activity (HT-29 [2]): 4.69%

CN1C(=O)C=C(c2cc(I)cc3c2N(C(=O)C(C)(C)C)CC3)C1=O
Activity (RKO [1]): 57.09%

CN1C(=O)C=C(c2cc(Cl)cc3c2N(C(=O)C(C)(C)C)CC3)C1=O
Activity (RKO [1]): 15.17%

CN1C(=O)C=C(c2cccc3c2N(C(=O)C2CC2)CC3)C1=O
Activity (HCT-116 [3]): 76.22%
Activity (RKO [1]): 88.42%
Activity (HT-29 [2]): 43.87%
IC50 (HCT-116 [4]): 3.45 µM
IC50 (RKO [5]): 2120 nM
IC50 (HT-29 [6]): 5.11 µM

COC(=O)CCN1C(=O)C=C(c2cccc3c2N(C(=O)C(C)(C)C)CC3)C1=O
Activity (HCT-116 [3]): 21.18%
Activity (RKO [1]): 59.55%

CN1C(=O)C=C(c2cccc3c2N(C(=O)C2CCCCC2)CC3)C1=O
Activity (RKO [1]): 65.05%

CN1C(=O)C=C(c2cccc3c2N(C(=O)c2ccccc2)CC3)C1=O
Activity (RKO [1]): 26.15%
Activity (HT-29 [2]): 4.95%

CN1C(=O)C=C(c2cccc3c2N(C(=O)N2CCOCC2)CC3)C1=O
Activity (RKO [1]): 22.03%
Activity (HT-29 [2]): 6.82%

CN1C(=O)C=C(c2ccc(Cl)c3c2N(C(=O)C(C)(C)C)CC3)C1=O
Activity (RKO [1]): 57.87%

CC1CN(C(=O)C(C)(C)C)c2c(C3=CC(=O)N(C)C3=O)cccc21 (stereo not drawn)
Activity (RKO [1]): 56.28%
Activity (HT-29 [2]): 6.02%

C=CC(=O)N1CCc2cccc(C3=CC(=O)N(C)C3=O)c21
Activity (HCT-116 [3]): 23.11%
Activity (RKO [1]): 78.18%
Activity (HT-29 [2]): 2.14%

Cc1cc2c(c(C3=CC(=O)N(C)C3=O)c1)N(C(=O)C(C)(C)C)CC2
Activity (RKO [1]): 17.49%

O=c1[nH]cc(F)c(=O)[nH]1 [FLUOROURACIL]
Activity (HCT-116 [3]): 37.53%
Activity (RKO [1]): 52.32%
Activity (HT-29 [2]): 29.52%
IC50 (HCT-116 [4]): 8.03 µM
IC50 (RKO [5]): 3960 nM
IC50 at 72 h [7]: 7.95 µM

CN1C(=O)C=C(c2cc(C#N)cc3c2N(C(=O)C(C)(C)C)CC3)C1=O
Activity (RKO [1]): 50.21%
Activity (HT-29 [2]): 4.68%

CC(C)(C)C(=O)N1CCc2cccc(C3=CC(=O)NC3=O)c21
Activity (RKO [1]): 10.96%

CN1C(=O)C=C(c2c(F)ccc3c2N(C(=O)C(C)(C)C)CC3)C1=O
Activity (RKO [1]): 32.98%

CCc1ccc(N2C(=O)C=C(c3cccc4c3N(C(=O)C(C)(C)C)CC4)C2=O)cc1
Activity (HCT-116 [3]): 10.96%
Activity (RKO [1]): 7.21%
Activity (HT-29 [2]): 7.09%

C=C(C)C(=O)n1ccc2cccc(C3=CC(=O)N(C)C3=O)c21
Activity (HCT-116 [3]): 32.89%
Activity (RKO [1]): 58.25%
Activity (HT-29 [2]): 10.28%

CN1C(=O)C=C(c2cccc3c2N(C(=O)c2cc4ccccc4o2)CC3)C1=O
Activity (HCT-116 [3]): 11.36%
Activity (RKO [1]): 46.33%

CC(C)(C)C(=O)N1CCc2cccc(C3=CC(=O)N(C4CCCCC4)C3=O)c21
Activity (RKO [1]): 38.47%

CC1Cc2cccc(C3=CC(=O)N(C)C3=O)c2N1C(=O)C(C)(C)C (stereo not drawn)
Activity (RKO [1]): 61.74%
Activity (HT-29 [2]): 2.07%
